According to patent US10273279B2, “Protease activated receptor-1 (PAR1) derived cytoprotective polypeptides and related methods” (THE SCRIPPS RESEARCH INSTITUTE, priority 2011, dated 2019):

Columns and labels:
[1] = target: T1, endogenous PAR1 on EA.hy.926 endothelial cells (Homo sapiens, UniProt P25116); assay: On cell Western (OCW) immunoassay of PAR1 cleavage on EA.hy.926 endothelial cells; format: cell-based; conditions: 1 hr at 4° C., 0.5 nM thrombin or 25 nM APC
T1 construct: untransfected EA.hy.926 endothelial cells expressing endogenous EPCR and PAR1; host or cells: EA.hy.926 endothelial cells
T1 sequence (P25116 22-425): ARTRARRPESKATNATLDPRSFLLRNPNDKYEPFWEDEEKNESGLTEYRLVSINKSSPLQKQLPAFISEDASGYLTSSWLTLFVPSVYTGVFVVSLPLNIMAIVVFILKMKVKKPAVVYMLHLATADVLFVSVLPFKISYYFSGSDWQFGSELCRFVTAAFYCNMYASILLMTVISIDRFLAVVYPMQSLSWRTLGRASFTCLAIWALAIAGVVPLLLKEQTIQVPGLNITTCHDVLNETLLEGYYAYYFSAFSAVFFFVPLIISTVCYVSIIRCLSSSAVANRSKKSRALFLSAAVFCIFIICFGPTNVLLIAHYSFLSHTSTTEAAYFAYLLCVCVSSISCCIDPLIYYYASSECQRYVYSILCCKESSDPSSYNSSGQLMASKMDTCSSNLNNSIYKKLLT
Method: Subsequently, these antibodies were used in an on cell Western (OCW) immunoassay on EA.hy.926 endothelial cells to determine whether APC cleaves PAR1 at Arg^46 in the presence of endogenous PAR1 and EPCR expression. […] Incubations were performed at 4° C. to minimize receptor recycling and internalization. After fixation and staining, antibody signals were normalized for total cell number using the cell permeable nuclear dye Draq5 and antibody signals for the goat anti-PAR1 antibodies (Ab87 and Origene) and ATAP2 were expressed as a fraction of the signal obtained for WEDE15 reflecting the total PAR1 present on the cell surface.
Detailed methods and steps used for the study shown in FIG. 5 are as follows: EA.hy.926 cells (ATCC: CRL-2922) were grown in black clear bottom 96 well plates (Nunc) in DMEM (Invitrogen #12430) supplemented with glutamax (Invitrogen #35050) and 10% FBS (Hyclone #35-011-CV) in a 37° C. cell incubator with a humidified atmosphere and 5% CO2 in air until confluency. […] After final washing with PBS/0.1% Tween, IR fluorescence of bound antibodies was determined using the Odyssey (Licor). Background fluorescence was determined by omitting the primary antibody and subtracting background values from all observed values.

[2] = test system: EA.hy.926 endothelial cells; assay: Staurosporine-induced endothelial cell apoptosis (Apopercentage dye); format: cell-based, human; conditions: 4 hrs pretreatment, 50 μM NPND, 50 μM scr-NPND or 10 μM TFLL, staurosporine 10 μM
Method: Activated Protein C (APC) conveys anti-apoptotic activity to EA.hy.926 cells that requires functional PAR1 receptor and APC binding to the endothelial protein C receptor (EPCR). See, e.g., Mosnier at al., Biochem J. 2003; 373:65-70; and Mosnier at al., Blood. 2007; 109:3161-3172.
Methods: EA.hy.926 cells (ATCC: CRL-2922) were grown in 24 well plates in DMEM (Invitrogen #12430) supplemented with glutamax (Invitrogen #35050) and 10% FBS (Hyclone #35-011-CV) in a 37° C. cell incubator with a humidified atmosphere and 5% CO2 in air until confluency. Cells were treated for 4 hrs with vehicle control, 50 μM NPND, 50 μM scr-NPND or 10 μM TFLL after which staurosporine (10 μM) and the Apopercentage dye (Biocolor) were added according the manufacturer's instructions. After 1 hr cells were washed with 2×1 ml PBS and 110 μl of the dye release agent was added to the cells. Subsequently 100 μl aliquots were transferred to a black 96 well plate and fluorescence was measured (530 nm excitation/580 nm emission). Apoptosis was expressed as a percentage of cells treated with 10 mM H2O2 for which apoptosis was set at 100%.

decrease of ATAP2 signal compared to WEDE15 [1] | Substance | inhibition of staurosporine-induced endothelial cell apoptosis [2] | inhibition of staurosporine-induced endothelial cell apoptosis ([2]; listed as NPND-peptide)
50% | APC: Activated Protein C, serine protease with anticoagulant and cytoprotective cell signaling activities | – | –
– | GDENENEKPNWYELKEPDSF (scrambled sequence) [scr-TR47-66, control scrambled TR47-66 peptide containing scrambled residues 47-66, reference compound] | did not convey detectable anti-apoptotic effects | –
– | NPNDKYEPFWEDEEKNESGL (listed as Homo sapiens) [TR47-66] | significantly inhibited | inhibited staurosporine-induced endothelial cell apoptosis
not significantly different | thrombin | – | –
